Where two headings read alike, the source gives them in different places.
How the values were obtained:
primary human T-cells [1] = assay: Proliferation assay after 5 days (CellTiter-Glo, CD3 stimulation; PBS counter screen); type: cell-based; conditions: CD3 stimulation; for Emax / Emax proliferation (% activation): 5 days, normalized to reference compound A1 as stimulator control = 100%, DMSO neutral control; for Emax: read-out: Emax proliferation (% activation); for EC50: primary human T-cells, CellTiter-Glo after 5 days, EC50 of fitted sigmoidal curve, read-out: Tcell Proliferation CD3 EC50
How it was run: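 ATP-based luminescence (CellTiter-Glo 2.0, room temperature) measured proliferation 5 days after compound addition to CD3-stimulated or unstimulated primary human T-cells. Flags marked compounds that lowered viability or activated unstimulated cells.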

primary human T-cells [2] = test system: primary human T-cells

Row | SMILES | Emax (primary human T-cells [1]; Homo sapiens, T-cell, 120 h) [%] | EC50 (primary human T-cells [1]; Homo sapiens, T-cell, 120 h) [nM] | EC50 (primary human T-cells [2]) [nM] | Emax proliferation (% activation) (primary human T-cells [1]) | EC50 (primary human T-cells [1]) [nM]
1 | Cc1nnc(-c2nc(-c3cc4c(cc3F)S(=O)(=O)C[C@H](N)C(=O)N4Cc3ccc(Cl)cc3)no2)o1 [Example 322, (3R)-3-amino-5-[(4-chlorophenyl)methyl]-8-fluoro-7-[5-(5-methyl-1,3,4-oxadiazol-2-yl)-1,2,4-oxadiazol-3-yl]-1,1-dioxo-2,3-dihydro-1λ^6,5-benzothiazepin-4-one] | 110 | 751 | 740 |  | 
2 | CN1CC(c2nc(-c3cc4c(cc3F)S(=O)(=O)C[C@H](N)C(=O)N4Cc3ccc(Cl)cc3)no2)CC(C)(C)C1 (stereo partly drawn) [Example 324, (3R)-3-amino-5-[(4-chlorophenyl)methyl]-8-fluoro-1,1-dioxo-7-[5-(1,5,5-trimethyl-3-piperidyl)-1,2,4-oxadiazol-3-yl]-2,3-dihydro-1λ^6,5-benzothiazepin-4-one] | 107 | 341 | 4370 |  | 
3 | CN(C)Cc1nc(-c2cc3c(cc2F)S(=O)(=O)C[C@H](N)C(=O)N3Cc2ccc(Cl)cc2)no1 [Example 325, (3R)-3-amino-5-[(4-chlorophenyl)methyl]-7-[5-[(dimethylamino)methyl]-1,2,4-oxadiazol-3-yl]-8-fluoro-1,1-dioxo-2,3-dihydro-1λ^6,5-benzothiazepin-4-one] | 96 | 869 | 455 |  | 
4 | N[C@H]1CS(=O)(=O)c2cc(F)c(-c3noc(C(F)(F)C(F)(F)F)n3)cc2N(Cc2ccc(Cl)cc2)C1=O [Example 326, (3R)-3-amino-5-[(4-chlorophenyl)methyl]-8-fluoro-1,1-dioxo-7-[5-(1,1,2,2,2-pentafluoroethyl)-1,2,4-oxadiazol-3-yl]-2,3-dihydro-1λ^6,5-benzothiazepin-4-one] | 129 | 908 | 703 |  | 
5 | C#CCOCCOCCOCCCC(C)(C)c1nc(-c2cc3c(cc2F)S(=O)(=O)C[C@H](N)C(=O)N3Cc2ccc(Cl)cc2)no1 [Example 327, (3R)-3-amino-5-[(4-chlorophenyl)methyl]-7-[5-[1,1-dimethyl-4-[2-(2-prop-2-ynoxyethoxy)ethoxy]butyl]-1,2,4-oxadiazol-3-yl]-8-fluoro-1,1-dioxo-2,3-dihydro-1λ^6,5-benzothiazepin-4-one] | 104 | 722 | 2330 |  | 
6 | CN(C)C(=O)c1nc(-c2cc3c(cc2F)S(=O)(=O)C[C@H](N)C(=O)N3Cc2ccc(OC(F)(F)F)cc2)no1 [Example 328, 3-[(3R)-3-amino-8-fluoro-1,1,4-trioxo-5-[[4-(trifluoromethoxy)phenyl]methyl]-2,3-dihydro-1λ^6,5-benzothiazepin-7-yl]-N,N-dimethyl-1,2,4-oxadiazole-5-carboxamide] | 120 | 1960 | 1080 |  | 
7 | NC(c1nc(-c2cc3c(cc2F)S(=O)(=O)C[C@H](N)C(=O)N3Cc2ccc(OC(F)(F)F)cc2)no1)C(F)(F)F (stereo partly drawn) [Example 329, (3R)-3-amino-7-[5-(1-amino-2,2,2-trifluoro-ethyl)-1,2,4-oxadiazol-3-yl]-8-fluoro-1,1-dioxo-5-[[4-(trifluoromethoxy)phenyl]methyl]-2,3-dihydro-1λ^6,5-benzothiazepin-4-one] | 70 | 5330 | 198 |  | 
8 | CC(C)(C)NC(=O)c1nc(-c2cc3c(cc2F)S(=O)(=O)C[C@H](N)C(=O)N3Cc2ccc(OC(F)(F)F)cc2)no1 [Example 330, 3-[(3R)-3-amino-8-fluoro-1,1,4-trioxo-5-[[4-(trifluoromethoxy)phenyl]methyl]-2,3-dihydro-1λ^6,5-benzothiazepin-7-yl]-N-tert-butyl-1,2,4-oxadiazole-5-carboxamide] | 132 | 291 | 1830 |  | 
9 | N[C@H]1CS(=O)(=O)c2cc(F)c(-c3noc(C4(CO)CCCO4)n3)cc2N(Cc2ccc(OC(F)(F)F)cc2)C1=O (stereo partly drawn) [Example 332, (3R)-3-amino-8-fluoro-7-[5-[2-(hydroxymethyl)tetrahydrofuran-2-yl]-1,2,4-oxadiazol-3-yl]-1,1-dioxo-5-[[4-(trifluoromethoxy)phenyl]methyl]-2,3-dihydro-1λ^6,5-benzothiazepin-4-one] | 128 | 814 | 746 |  | 
10 | N[C@H]1CS(=O)(=O)c2cc(F)c(-c3noc(C4(N)COC4)n3)cc2N(Cc2ccc(OC(F)(F)F)cc2)C1=O [Example 333, (3R)-3-amino-7-[5-(3-aminooxetan-3-yl)-1,2,4-oxadiazol-3-yl]-8-fluoro-1,1-dioxo-5-[[4-(trifluoromethoxy)phenyl]methyl]-2,3-dihydro-1lambda6,5-benzothiazepin-4-one] | 94 | 1220 | 714 |  | 
11 | Cc1nnc(-c2nc(-c3cc4c(cc3F)S(=O)(=O)C[C@H](N)C(=O)N4Cc3ccc(OC(F)(F)F)cc3)no2)o1 [Example 334, (3R)-3-amino-8-fluoro-7-[5-(5-methyl-1,3,4-oxadiazol-2-yl)-1,2,4-oxadiazol-3-yl]-1,1-dioxo-5-[[4-(trifluoromethoxy)phenyl]methyl]-2,3-dihydro-1λ^6,5-benzothiazepin-4-one] | 80 | 345 | 239 |  | 
12 | COC(=O)N1CC2CC(c3nc(-c4cc5c(cc4F)S(=O)(=O)C[C@H](N)C(=O)N5Cc4ccc(OC(F)(F)F)cc4)no3)(C2)C1 [Example 335, methyl 1-[3-[(3R)-3-amino-8-fluoro-1,1,4-trioxo-5-[[4-(trifluoromethoxy)phenyl]methyl]-2,3-dihydro-1λ^6,5-benzothiazepin-7-yl]-1,2,4-oxadiazol-5-yl]-3-azabicyclo[3.1.1]heptane-3-carboxylate] | 161 |  | 819 |  | 
13 | COC(=O)N1CC2CC(c3nc(-c4cc5c(cc4F)[S+]([O-])C[C@H](N)C(=O)N5Cc4ccc(OC(F)(F)F)cc4)no3)(C2)C1 (stereo partly drawn) [Example 336, methyl 1-[3-[(3R)-3-amino-8-fluoro-1,4-dioxo-5-[[4-(trifluoromethoxy)phenyl]methyl]-2,3-dihydro-1λ^4,5-benzothiazepin-7-yl]-1,2,4-oxadiazol-5-yl]-3-azabicyclo[3.1.1]heptane-3-carboxylate] |  |  | 7020 | 114 | 1100
14 | COC(=O)N1CC2CC(c3nc(-c4cc5c(cc4F)[S+]([O-])C[C@H](N)C(=O)N5Cc4ccc(OC(F)(F)F)cc4)no3)(C2)C1 (stereo partly drawn) [Example 337, methyl 1-[3-[(3R)-3-amino-8-fluoro-1,4-dioxo-5-[[4-(trifluoromethoxy)phenyl]methyl]-2,3-dihydro-1λ^4,5-benzothiazepin-7-yl]-1,2,4-oxadiazol-5-yl]-3-azabicyclo[3.1.1]heptane-3-carboxylate] |  |  | 5950 | 92 | 2270
15 | COC(F)(c1nc(-c2cc3c(cc2F)[S+]([O-])C[C@H](N)C(=O)N3Cc2ccc(Cl)cc2)no1)C(F)(F)F (stereo partly drawn) [Example 338, (3R)-3-amino-5-[(4-chlorophenyl)methyl]-8-fluoro-1-oxo-7-[5-(1,2,2,2-tetrafluoro-1-methoxy-ethyl)-1,2,4-oxadiazol-3-yl]-2,3-dihydro-1λ^4,5-benzothiazepin-4-one] | 137 | 282 | 1580 |  | 

— US20240368150A1 (Hoffmann-La Roche Inc., priority 2021, published 2024)
